From patent publication US20210330611A1, “THERAPY FOR NEUROLOGICAL DISEASES/DISORDERS” (priority 2020, published 2021)
Structures can show the parent of a compound that is named as a salt. Where two headings read alike, the source gives them in different places.

Tests used:
primary rat microglia [1] = system: primary rat microglia;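 for Fibrin % cell toxicity: share of dead cells sized under 150 µm2 at 10 µM in fibrin-stimulated microglia HTS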
[2] = system: fibrin- and LPS-induced microglia activation; test: cells; format: cell-based, rat
primary rat microglia [3] = system: primary rat microglia; remark: listed apart in the source;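 for Fibrin % cell toxicity: share of dead cells sized under 150 µm2 at 10 µM in fibrin-stimulated microglia HTS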
[4] = system: LPS-induced microglia activation; test: Image-based assay of LPS-induced microglia activation (HTS and dose response); format: cell-based, rat
[5] = system: fibrin-induced microglia activation; test: Image-based assay of fibrin-induced microglia activation (HTS and dose response); format: cell-based, rat; settings: for inhibition at 10 µM: Rattus norvegicus, Microglia, read-out: Fibrin % inhibition
[6] = classification by fibrin and LPS inhibition in HTS
[7] = Rattus norvegicus, Microglia, 48 h; read-out: LPS % inhibition
[8] = primary microglia HTS, fibrin stimulation, cell size >800 μm2 as marker of activation
[9] = Rattus norvegicus, Microglia, 48 h, read-out: LPS % inhibition
[10] = quadrant by fibrin and LPS inhibition in HTS of 1907 compounds
[11] = Rattus norvegicus, Microglia, 48 h, primary microglia HTS, LPS stimulation; increased cell size (>800 μm^2) as marker of activation; read-out: LPS % inhibition
[12] = primary microglia HTS, fibrin stimulation, increased cell size (>800 μm^2) as marker of activation

## O=C(C1CCCCC1)N1CC(=O)N2CCc3ccccc3C2C1 (centres unmarked) [Praziquantel]
Primary rat microglia [1]; rat
  LPS % cell toxicity: 0%
[2]; [6]
  Quadrant (FIG. 5b): Q4
Primary rat microglia [3]; rat
  Fibrin % cell toxicity: 1%
[4]; [7]
  inhibition at 10 µM: 21%
[5]; [8]
  inhibition at 10 µM: -3%

## CC(=O)[C@H]1CC[C@H]2[C@@H]3CC=C4C[C@@H](OC(=O)CCC(=O)O)CC[C@]4(C)[C@H]3CC[C@]12C [Pregnenolone Succinate]
Primary rat microglia [1]; rat
  LPS % cell toxicity: 1%
[2]; [6]
  Quadrant (FIG. 5b): Q4
Primary rat microglia [3]; rat
  Fibrin % cell toxicity: 1%
[4]; [7]
  inhibition at 10 µM: 21%
[5]; [8]
  inhibition at 10 µM: 4%

## COc1cc(NC(C)CCCN)c2ncccc2c1 (centres unmarked) [Primaquine]
Primary rat microglia [1]; rat
  LPS % cell toxicity: 0%
[2]
  Quadrant (FIG. 5b): Q4
Primary rat microglia [3]; rat
  Fibrin % cell toxicity: 0%
[4]; [9]
  inhibition at 10 µM: 7%
[5]
  inhibition at 10 µM: -58%

## CCCN(CCC)S(=O)(=O)c1ccc(C(=O)O)cc1 [Probenecid]
Primary rat microglia [1]; rat
  LPS % cell toxicity: 0%
[2]; [6]
  Quadrant (FIG. 5b): Q4
Primary rat microglia [3]; rat
  Fibrin % cell toxicity: 1%
[4]; [7]
  inhibition at 10 µM: 13%
[5]; [8]
  inhibition at 10 µM: 14%

## CNNCc1ccc(C(=O)NC(C)C)cc1 [Procarbazine]
Primary rat microglia [1]; rat
  LPS % cell toxicity: 0%
[2]; [6]
  Quadrant (FIG. 5b): Q4
Primary rat microglia [3]; rat
  Fibrin % cell toxicity: 1%
[4]; [7]
  inhibition at 10 µM: 9%
[5]; [8]
  inhibition at 10 µM: -21%

## CC(=O)[C@H]1CC[C@H]2[C@@H]3CCC4=CC(=O)CC[C@]4(C)[C@H]3CC[C@]12C [Progesterone]
Primary rat microglia [1]; rat
  LPS % cell toxicity: 0%
[2]; [6]
  Quadrant (FIG. 5b): Q4
Primary rat microglia [3]; rat
  Fibrin % cell toxicity: 1%
[4]; [7]
  inhibition at 10 µM: 36%
[5]; [8]
  inhibition at 10 µM: 36%

## CC(C)NCC(O)c1ccc2ccccc2c1 (centres unmarked) [Pronetalol Hydrochloride]
Primary rat microglia [1]; rat
  LPS % cell toxicity: 0%
[2]; [6]
  Quadrant (FIG. 5b): Q4
Primary rat microglia [3]; rat
  Fibrin % cell toxicity: 1%
[4]; [7]
  inhibition at 10 µM: 10%
[5]; [8]
  inhibition at 10 µM: -12%

## CCCc1cc(=O)[nH]c(=S)[nH]1 [Propylthiouracil]
Primary rat microglia [1]; rat
  LPS % cell toxicity: 0%
[2]
  Quadrant (FIG. 5b): Q4
Primary rat microglia [3]; rat
  Fibrin % cell toxicity: 0%
[4]; [9]
  inhibition at 10 µM: 8%
[5]
  inhibition at 10 µM: -4%

## NC(=O)[C@@H]1CCCN1C(=O)[C@H](Cc1cnc[nH]1)NC(=O)[C@@H]1CCC(=O)N1 [Protirelin]
Primary rat microglia [1]
  LPS % cell toxicity: 1%
[2]; [6]
  Quadrant (FIG. 5b): Q4
Primary rat microglia [3]
  Fibrin % cell toxicity: 1%
[4]
  LPS % inhibition: 15%
[5]; [8]
  Fibrin % inhibition: 2%

## CNCCCC1c2ccccc2C=Cc2ccccc21 [Protriptyline]
Primary rat microglia [1]; rat
  LPS % cell toxicity: 0%
[2]
  Quadrant (FIG. 5b): Q4
Primary rat microglia [3]; rat
  Fibrin % cell toxicity: 1%
[4]; [9]
  inhibition at 10 µM: 15%
[5]
  inhibition at 10 µM: 21%

## Cc1ncc(CO)c(CO)c1O [Pyridoxine]
Primary rat microglia [1]; rat
  LPS % cell toxicity: 0%
[2]; [6]
  Quadrant (FIG. 5b): Q4
Primary rat microglia [3]; rat
  Fibrin % cell toxicity: 1%
[4]; [7]
  inhibition at 10 µM: 21%
[5]; [8]
  inhibition at 10 µM: 1%

## [O-][n+]1ccccc1[S-].[O-][n+]1ccccc1[S-].[Zn+2] [Pyrithione Zinc]
Primary rat microglia [1]
  LPS % cell toxicity: 87%
[2]
  Quadrant (FIG. 5b): Q2
Primary rat microglia [3]
  Fibrin % cell toxicity: 86%
[4]; 10 µM
  LPS % inhibition: 127%
[5]; 10 µM
  Fibrin % inhibition: 109%

## CCN(CC)CCCC(C)Nc1c2ccc(Cl)cc2nc2ccc(OC)cc12 (centres unmarked) [Quinacrine]
Primary rat microglia [1]; rat
  LPS % cell toxicity: 65%
[2]; [10]
  Quadrant (FIG. 5b): Q1
Primary rat microglia [3]; rat
  Fibrin % cell toxicity: 1%
[4]; [11]
  inhibition at 10 µM: 118%
[5]; [12]
  inhibition at 10 µM: 24%

## C=C[C@H]1C[N@@]2CC[C@H]1C[C@@H]2[C@@H](O)c1ccnc2ccc(OC)cc12 [Quinidine]
Primary rat microglia [1]; rat
  LPS % cell toxicity: 0%
[2]; [6]
  Quadrant (FIG. 5b): Q4
Primary rat microglia [3]; rat
  Fibrin % cell toxicity: 1%
[4]; [7]
  inhibition at 10 µM: 20%
[5]; [8]
  inhibition at 10 µM: -6%

## C=C[C@H]1C[N@@]2CC[C@H]1C[C@H]2[C@H](O)c1ccnc2ccc(OC)cc12 [Quinine Sulfate]
Primary rat microglia [1]; rat
  LPS % cell toxicity: 1%
[2]; [6]
  Quadrant (FIG. 5b): Q4
Primary rat microglia [3]; rat
  Fibrin % cell toxicity: 1%
[4]
  LPS % inhibition: 14%
[5]; [8]
  Fibrin % inhibition: −30%

## C=C[C@H]1C[N@@]2CC[C@H]1C[C@H]2[C@H](O)c1ccnc2ccc(OC)cc12 [Quinine]
Primary rat microglia [1]; rat
  LPS % cell toxicity: 0%
[2]; [6]
  Quadrant (FIG. 5b): Q4
Primary rat microglia [3]; rat
  Fibrin % cell toxicity: 1%
[4]
  LPS % inhibition: −7%
[5]; [8]
  Fibrin % inhibition: −32%

## O=C(c1ccc(OCCN2CCCCC2)cc1)c1c(-c2ccc(O)cc2)sc2cc(O)ccc12 [Raloxifene]
Primary rat microglia [1]; rat
  LPS % cell toxicity: 1%
[2]; [10]
  Quadrant (FIG. 5b): Q1
Primary rat microglia [3]; rat
  Fibrin % cell toxicity: 0%
[4]; [11]
  inhibition at 10 µM: 60%
[5]; [12]
  inhibition at 10 µM: 7%

## CCOc1ccccc1OC(c1ccccc1)C1CNCCO1.CS(=O)(=O)O (centres unmarked) [Reboxetine Mesylate]
Primary rat microglia [1]
  LPS % cell toxicity: 0%
[2]; [6]
  Quadrant (FIG. 5b): Q4
Primary rat microglia [3]
  Fibrin % cell toxicity: 1%
[4]; primary microglia HTS, LPS stimulation, cell size >800 μm2 as marker of activation
  LPS % inhibition: 8%
[5]; [8]
  Fibrin % inhibition: −33%

## COC(=O)[C@H]1[C@H]2C[C@@H]3c4[nH]c5cc(OC)ccc5c4CCN3C[C@H]2C[C@@H](OC(=O)c2cc(OC)c(OC)c(OC)c2)[C@@H]1OC [Reserpine]
Primary rat microglia [1]; rat
  LPS % cell toxicity: 7%
[2]; [10]
  Quadrant (FIG. 5b): Q1
Primary rat microglia [3]; rat
  Fibrin % cell toxicity: 3%
[4]; [11]
  inhibition at 10 µM: 64%
[5]; [12]
  inhibition at 10 µM: -4%

## Oc1cccc(O)c1 [Resorcinol]
Primary rat microglia [1]; rat
  LPS % cell toxicity: 0%
[2]; [6]
  Quadrant (FIG. 5b): Q4
Primary rat microglia [3]; rat
  Fibrin % cell toxicity: 0%
[4]; Rattus norvegicus, Microglia, 48 h, primary microglia HTS, LPS stimulation, cell size >800 μm2 as marker of activation; read-out: LPS % inhibition
  inhibition at 10 µM: 8%
[5]; [8]
  inhibition at 10 µM: -4%

## CCCCCCCCCCCCCCCC(=O)OC/C=C(C)/C=C/C=C(C)/C=C/C1=C(C)CCCC1(C)C [Retinyl Palmitate]
Primary rat microglia [1]; rat
  LPS % cell toxicity: 0%
[2]; [6]
  Quadrant (FIG. 5b): Q4
Primary rat microglia [3]; rat
  Fibrin % cell toxicity: 0%
[4]; [7]
  inhibition at 10 µM: 11%
[5]; [8]
  inhibition at 10 µM: -15%

## CO[C@H]1/C=C/O[C@@]2(C)Oc3c(C)c(O)c4c(c3C2=O)C2=NC3(CCN(CC(C)C)CC3)NC2=C(NC(=O)/C(C)=C\C=C\[C@H](C)[C@H](O)[C@@H](C)[C@@H](O)[C@@H](C)[C@H](OC(C)=O)[C@@H]1C)C4=O [Rifabutin]
Primary rat microglia [1]; rat
  LPS % cell toxicity: 0%
[2]; [6]
  Quadrant (FIG. 5b): Q4
Primary rat microglia [3]; rat
  Fibrin % cell toxicity: 0%
[4]; [7]
  inhibition at 10 µM: 2%
[5]; [8]
  inhibition at 10 µM: -51%
